Values joined by “and” are separate entries in the source; they are usually repeats but may differ in a detail not shown here. Identical values can stand only once. Like-named read-outs stand apart in the source and are kept apart here.
Tests used:
[1] = tested on: α-GPO from P. freudenreichii subsp. shermanii (NCIMB 5964); experiment: α-GPO assay (Trinder-type H2O2 colour reaction); assay type: biochemical; details: read-out: Km for L-α-glycerol-3-phosphate
[2] = tested on: α-GPO from P. freudenreichii subsp. shermanii (formerly P. shermanii) (NCIMB 9885); experiment: α-GPO assay (Trinder-type H2O2 colour reaction); assay type: biochemical, P. freudenreichii subsp. shermanii (NCIMB 9885); details: cell-free extract, read-out: Km of the α-GPO for L-α-glycerol-3-phosphate
Protocol: (§1) Freeze-dried cultures of `P. acidi-propionici`(formerly `arabinosum`) NCIMB 5958) and `P. freudenreichii` subsp. `shermanii`(formerly `P. shermanii`) (NCIMB 9885) were obtained from the National Collection of Industrial and Marine Bacteria, Torry Research Station, Aberdeen, Scotland. The organisms were grown in a similar manner to that described above for `P. freudenreichii` subsp. `freudenriechii` (DSM 20270). The microorganisms were harvested, disrupted and assayed for α-GPO again in a similar way to `P. `freudenreichii` subsp. `freudenreichii` (DSM 20270).

[3] = tested on: α-GPO from P. freudenreichii subsp. freudenreichii (NCIMB 5959); experiment: α-GPO assay (Trinder-type H2O2 colour reaction); assay type: biochemical; details: read-out: Km for L-α-glycerol-3-phosphate
[4] = tested on: previously described examples of α-GPO; details: prior art enzymes; read-out: Km values for L-α-glycerol-3-phosphate; cited from earlier work
[5] = tested on: α-glycerol-3-phosphate oxidase (α-GPO) from Propionibacterium freudenreichii subsp. freudenreichii (DSM 20270); experiment: α-GPO assay (Trinder-type H2O2 colour reaction, 505nm, 37° C.); assay type: biochemical
Protocol: Aliquots of the resulting supernatant containing partially purified α-GPO were used in the following test system: […]
L-α-glycerol-3-phosphate
4-amino-antipyrine 1.5 mM
Dimethylglutarate buffer (DMG; pH 7.5)
The rate of change of absorbance was measured at 505nm, 37° C. in a spectrophotometer.

[6] = tested on: α-GPO from P. acidi-propionici (formerly arabinosum) (NCIMB 5958); experiment: α-GPO assay (Trinder-type H2O2 colour reaction); assay type: biochemical, P. acidi-propionici (NCIMB 5958); details: cell-free extract, read-out: Km of the α-GPO for L-α-glycerol-3-phosphate
Protocol: as §1

[7] = listed as L-α0glycerol-3-phosphate

Question: With `O=P(O)(O)OC[C@H](O)CO` [L-α-glycerol-3-phosphate] as the compound, how does the Km [1] read?
Answer: 6 µM and ~6 µM

Question: What about the Km [2, 7] of the same compound?
Answer: 22 µM

Question: What about the Km [2] of the same compound?
Answer: ~22 µM

Question: And the Km [3]?
Answer: 26 µM and ~26 µM

Question: And the Km [4]?
Answer: ≥ 2500 µM

Question: What about the Km ([5]; characterisation of the preferred enzyme, read-out: Michaelis-Menten constant (Km) in respect of L-α-glycerol-3-phosphate) of the same compound?
Answer: 15 µM

Question: What about the Km ([5]; high speed centrifugation supernatant, DMG pH 7.5, 37° C., 505nm, read-out: Km of the α-GPO for its substrate, L-α-glycerol-3-phosphate) of the same compound?
Answer: 15 µM

Question: What about the Km ([5]; pooled active fractions after Sephadex G-200 gel filtration, read-out: Km of the α-GPO for its substrate L-α-glycerol-3-phosphate) of the same compound?
Answer: 15 µM

Question: And the Km ([5]; read-out: Km for L-α-glycerol-3-phosphate)?
Answer: 15 µM and ~15 µM

Question: What about the “fold lower Km value than previously described α-GPO” value ([5]; versus Km of 2.5mM or greater of previously described α-GPO) of the same compound?
Answer: 170 fold

Question: And the Km [6, 7]?
Answer: 18 µM

Question: And the Km [6]?
Answer: ~18 µM

Reference: patent US5019505A, “Enzymes having alpha-glycerol-3-phosphate oxidase activity, production and use thereof” (GEnzyme (U.K.) Ltd., priority 1986, dated 1991)
